Positions count from the first letter of the chain named.
What was measured:
Experiment in all cases: KINOMEscan kinase binding assay (Eurofins/DiscoveRx), % Ctrl
kinases [1] = molecular target: T1, kinases (Homo sapiens, UniProt P00533, L861Q)
T1 construct: purchased Eurofins/DiscoveRx; host or cells: E. coli BL21-derived host (T7 phage display) for most kinases; HEK-293 for the rest
In short: (§1)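 Competition binding, 1 h RT: phage-tagged or HEK-293-expressed DNA-tagged kinase + immobilized ligand + compound. Eluate kinase by qPCR. % Ctrl = (test − positive ctrl)/(negative ctrl − positive ctrl) × 100; lower means stronger binding.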

kinases [2] = molecular target: T2, kinases (Homo sapiens, UniProt P10721, D816V)
T2 construct: purchased Eurofins/DiscoveRx; host or cells: E. coli BL21-derived host (T7 phage display) for most kinases; HEK-293 for the rest
In short: as §1

kinases [3] = molecular target: T3, kinases (Homo sapiens, UniProt P36888, D835H)
T3 construct: purchased Eurofins/DiscoveRx; host or cells: E. coli BL21-derived host (T7 phage display) for most kinases; HEK-293 for the rest
T3 sequence (P36888 27-993 D835H): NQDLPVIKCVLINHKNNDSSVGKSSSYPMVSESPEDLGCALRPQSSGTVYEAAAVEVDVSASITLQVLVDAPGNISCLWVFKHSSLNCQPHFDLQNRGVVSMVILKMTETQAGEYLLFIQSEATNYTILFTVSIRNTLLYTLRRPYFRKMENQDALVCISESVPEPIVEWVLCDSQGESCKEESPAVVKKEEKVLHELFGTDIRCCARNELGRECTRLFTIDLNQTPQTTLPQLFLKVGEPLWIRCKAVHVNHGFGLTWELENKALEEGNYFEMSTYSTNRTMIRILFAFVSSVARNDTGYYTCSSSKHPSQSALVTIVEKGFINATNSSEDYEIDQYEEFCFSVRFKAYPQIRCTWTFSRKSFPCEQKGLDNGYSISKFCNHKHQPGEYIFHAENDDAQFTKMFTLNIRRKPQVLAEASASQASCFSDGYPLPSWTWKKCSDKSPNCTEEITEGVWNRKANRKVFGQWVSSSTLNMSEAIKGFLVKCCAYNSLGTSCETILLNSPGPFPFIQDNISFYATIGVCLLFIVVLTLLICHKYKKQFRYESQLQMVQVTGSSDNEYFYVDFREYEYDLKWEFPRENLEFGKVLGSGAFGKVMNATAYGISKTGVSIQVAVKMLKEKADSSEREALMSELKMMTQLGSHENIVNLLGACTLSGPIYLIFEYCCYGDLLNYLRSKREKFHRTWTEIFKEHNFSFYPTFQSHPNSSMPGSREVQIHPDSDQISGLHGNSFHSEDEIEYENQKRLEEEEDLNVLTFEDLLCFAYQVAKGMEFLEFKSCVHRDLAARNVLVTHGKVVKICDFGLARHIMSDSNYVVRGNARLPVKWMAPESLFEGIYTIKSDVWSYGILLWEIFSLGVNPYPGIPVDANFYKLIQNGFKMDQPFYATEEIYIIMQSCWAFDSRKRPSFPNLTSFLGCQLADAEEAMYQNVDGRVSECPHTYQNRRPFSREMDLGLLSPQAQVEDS
In short: as §1

kinases [4] = molecular target: T4, kinases (Homo sapiens, UniProt P00519, E255K)
T4 construct: purchased Eurofins/DiscoveRx; host or cells: E. coli BL21-derived host (T7 phage display) for most kinases; HEK-293 for the rest
In short: as §1

kinases [5] = molecular target: T5, kinases (Homo sapiens, UniProt P36888, D835V)
T5 construct: purchased Eurofins/DiscoveRx; host or cells: E. coli BL21-derived host (T7 phage display) for most kinases; HEK-293 for the rest
T5 sequence (P36888 27-993 D835V): T3 sequence (P36888 27-993 D835H) with H809V
In short: as §1

kinases [6] = molecular target: T6, kinases (Homo sapiens, UniProt P00533, L858R)
T6 construct: purchased Eurofins/DiscoveRx; host or cells: E. coli BL21-derived host (T7 phage display) for most kinases; HEK-293 for the rest
In short: as §1

[7] = target ABL1(E255K)-phosphorylated; 1 μM
[8] = 1 μM; target ABL1(E255K)-phosphorylated
[9] = 1 μM; ABL1(E255K)-phosphorylated

T4 sequence (P00519 whole entry E255K): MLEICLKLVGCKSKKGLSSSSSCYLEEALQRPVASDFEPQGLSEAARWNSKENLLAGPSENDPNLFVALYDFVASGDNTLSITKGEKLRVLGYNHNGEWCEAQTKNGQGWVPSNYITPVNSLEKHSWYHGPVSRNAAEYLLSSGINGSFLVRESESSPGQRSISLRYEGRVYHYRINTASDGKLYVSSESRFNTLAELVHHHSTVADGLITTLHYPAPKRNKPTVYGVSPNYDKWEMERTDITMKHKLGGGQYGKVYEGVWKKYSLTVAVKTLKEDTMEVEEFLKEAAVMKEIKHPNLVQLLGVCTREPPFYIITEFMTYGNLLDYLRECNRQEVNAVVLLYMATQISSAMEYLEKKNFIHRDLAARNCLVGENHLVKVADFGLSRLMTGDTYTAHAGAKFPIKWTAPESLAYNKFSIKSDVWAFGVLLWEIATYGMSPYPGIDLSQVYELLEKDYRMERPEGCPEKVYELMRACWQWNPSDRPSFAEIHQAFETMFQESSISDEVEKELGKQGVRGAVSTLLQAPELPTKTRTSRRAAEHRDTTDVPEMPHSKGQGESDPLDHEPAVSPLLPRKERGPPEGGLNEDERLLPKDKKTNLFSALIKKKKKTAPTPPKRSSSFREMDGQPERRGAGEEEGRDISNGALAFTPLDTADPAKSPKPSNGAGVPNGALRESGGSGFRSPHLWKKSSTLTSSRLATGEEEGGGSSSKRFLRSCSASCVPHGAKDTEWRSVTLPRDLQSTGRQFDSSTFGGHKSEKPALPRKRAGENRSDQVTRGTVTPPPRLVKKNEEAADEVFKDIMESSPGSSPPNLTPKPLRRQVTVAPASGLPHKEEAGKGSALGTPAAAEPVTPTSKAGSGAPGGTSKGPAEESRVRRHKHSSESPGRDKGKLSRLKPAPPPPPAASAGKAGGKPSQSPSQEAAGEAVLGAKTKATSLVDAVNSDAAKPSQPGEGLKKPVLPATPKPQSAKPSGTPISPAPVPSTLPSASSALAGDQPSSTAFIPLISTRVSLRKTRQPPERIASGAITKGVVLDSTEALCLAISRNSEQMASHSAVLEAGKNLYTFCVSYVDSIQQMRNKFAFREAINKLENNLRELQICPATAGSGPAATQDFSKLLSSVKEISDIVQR
T2 sequence (P10721 26-976 D816V): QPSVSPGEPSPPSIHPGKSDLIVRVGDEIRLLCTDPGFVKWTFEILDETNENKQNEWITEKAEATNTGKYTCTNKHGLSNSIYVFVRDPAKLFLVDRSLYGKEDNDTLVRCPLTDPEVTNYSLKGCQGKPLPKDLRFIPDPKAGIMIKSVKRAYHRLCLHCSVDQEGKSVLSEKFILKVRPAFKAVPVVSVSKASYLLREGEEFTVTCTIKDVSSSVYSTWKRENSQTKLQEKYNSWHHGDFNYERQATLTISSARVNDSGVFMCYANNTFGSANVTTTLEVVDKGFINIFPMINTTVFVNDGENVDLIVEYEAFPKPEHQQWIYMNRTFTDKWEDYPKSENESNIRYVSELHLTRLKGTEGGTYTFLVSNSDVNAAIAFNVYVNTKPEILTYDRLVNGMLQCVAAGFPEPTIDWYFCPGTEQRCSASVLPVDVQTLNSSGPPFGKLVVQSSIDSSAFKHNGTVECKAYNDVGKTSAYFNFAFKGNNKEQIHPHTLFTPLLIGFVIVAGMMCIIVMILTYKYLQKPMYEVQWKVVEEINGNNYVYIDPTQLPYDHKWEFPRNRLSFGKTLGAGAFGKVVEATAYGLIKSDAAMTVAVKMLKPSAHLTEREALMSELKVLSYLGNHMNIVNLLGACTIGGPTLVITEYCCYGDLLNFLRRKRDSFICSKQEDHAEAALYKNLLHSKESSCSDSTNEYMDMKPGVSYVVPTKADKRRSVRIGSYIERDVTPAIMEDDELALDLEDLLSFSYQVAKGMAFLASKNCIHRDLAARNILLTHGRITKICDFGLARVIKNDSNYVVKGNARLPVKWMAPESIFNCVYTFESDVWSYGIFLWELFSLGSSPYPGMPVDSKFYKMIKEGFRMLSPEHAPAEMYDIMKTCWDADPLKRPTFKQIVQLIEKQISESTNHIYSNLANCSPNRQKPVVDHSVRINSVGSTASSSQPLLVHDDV

SMILES | % Ctrl, EGFR(L861Q) (kinases [1]; 1 μM; EGFR(L861Q)) | % Ctrl, KIT(D816V) (kinases [2]; 1 μM; KIT(D816V)) | % Ctrl, FLT3(D835H) (kinases [3]; 1 μM; FLT3(D835H)) | % Ctrl, ABL1(E255K)-phosphorylated (kinases [4]; [9]) | % Ctrl, FLT3(D835V) (kinases [5]; 1 μM; FLT3(D835V)) | % Ctrl, EGFR(L858R) (kinases [6]; 1 μM; EGFR(L858R)) | also measured
Cc1nn(C)c2c1-c1ccc3c(c1)/C(=C/c1[nH]ccc1C(=O)N(C)CCCO2)C(=O)N3 [Ex. 150, [3a(4)Z]-9,14,16-trimethyl-10,11,13,14-tetrahydro-2H-1,17-(ethanediylidene)pyrazolo[4,3-m]dipyrrolo[3,2-f:3′,4′-i][1,4]oxazacyclopentadecine-3,8(5H,9H)-dione] |  |  |  |  |  |  | % Ctrl, EGFR(L861Q) (kinases [1]; target EGFR(L861Q); 1 μM): 69 % Ctrl; % Ctrl, KIT(D816V) (kinases [2]; target KIT(D816V); 1 μM): 89 % Ctrl; % Ctrl, FLT3(D835H) (kinases [3]; target FLT3(D835H); 1 μM): 62 % Ctrl; % Ctrl, ABL1(E255K)-phosphorylated (kinases [4]; [7]): 95 % Ctrl; % Ctrl, FLT3(D835V) (kinases [5]; target FLT3(D835V); 1 μM): 13 % Ctrl; % Ctrl, EGFR(L858R) (kinases [6]; target EGFR(L858R); 1 μM): 77 % Ctrl
Cc1cc2c([nH]1)/C=C1\C(=O)Nc3cnc(cc31)-c1cnn(C)c1CN(C)CCN(C)C2=O [Ex. 172, [3a(4)Z]-6,9,12,14-tetramethyl-9,10,11,12,13,14-hexahydro-17,1-(azenometheno)pyrazolo[4,3-m]dipyrrolo[3,2-f:3′,4′-i][1,4]diazacyclopentadecine-3,8(2H,5H)-dione] |  |  |  |  |  |  | % Ctrl, EGFR(L861Q) (kinases [1]; 1 μM; target EGFR(L861Q)): 75 % Ctrl; % Ctrl, KIT(D816V) (kinases [2]; 1 μM; target KIT(D816V)): 0.8 % Ctrl; % Ctrl, FLT3(D835H) (kinases [3]; 1 μM; target FLT3(D835H)): 4.2 % Ctrl; % Ctrl, ABL1(E255K)-phosphorylated (kinases [4]; [8]): 0.4 % Ctrl; % Ctrl, FLT3(D835V) (kinases [5]; 1 μM; target FLT3(D835V)): 0.5 % Ctrl; % Ctrl, EGFR(L858R) (kinases [6]; 1 μM; target EGFR(L858R)): 48 % Ctrl
Cc1cc2c([nH]1)/C=C1\C(=O)Nc3cc(Cl)c(cc31)OCCO[C@@H](C(=O)N[C@@H]1CCNC1)CN(C)C2=O [Ex. 136, [7R,16a(17)Z]-19-chloro-2,5-dimethyl-4,16-dioxo-N-[(3R)-pyrrolidin-3-yl]-4,5,6,7,9,10,15,16-octahydro-1H-12,14-(ethanediylidene)dipyrrolo[3,2-i:3′,4′-l][1,4,7]dioxazacyclopentadecine-7-carboxamide] | 95 % Ctrl | 36 % Ctrl | 32 % Ctrl | 36 % Ctrl | 2 % Ctrl | 90 % Ctrl | 
Cc1cc2c([nH]1)/C=C1\C(=O)Nc3cnc(nc31)N(C)CCCOCCN(C)C2=O [Ex.71, [17a(18)Z]-2,5,12-trimethyl-6,7,9,10,11,12-hexahydro-1H-13,15-(azenometheno)dipyrrolo[3,2-f:3′,4′-i][1,4,11,13]oxatriazacyclohexadecine-4,17(5H,16H)-dione] | 80 % Ctrl | 100 % Ctrl | 99 % Ctrl | 85 % Ctrl | 100 % Ctrl | 9 % Ctrl | 
Cc1cc2c([nH]1)/C=C1\C(=O)Nc3cc(Cl)c(cc31)OCCO[C@@H](C(=O)N1CCN(C)CC1)CN(C)C2=O [Ex. 138, [7R,16a(17)Z]-19-chloro-2,5-dimethyl-7-(4-methylpipearazine-1-carbonyl)-6,7,9,10-tetrahydro-1H-12,14-(ethanediylidene)dipyrrolo[3,2-i:3′,4′-l][1,4,7]dioxazacyclopentadecine-4,16(5H,15H)-dione] |  |  |  |  |  |  | % Ctrl, EGFR(L861Q) (kinases [1]; target EGFR(L861Q); 1 μM): 100 % Ctrl; % Ctrl, KIT(D816V) (kinases [2]; target KIT(D816V); 1 μM): 100 % Ctrl; % Ctrl, FLT3(D835H) (kinases [3]; target FLT3(D835H); 1 μM): 73 % Ctrl; % Ctrl, ABL1(E255K)-phosphorylated (kinases [4]; [7]): 61 % Ctrl; % Ctrl, FLT3(D835V) (kinases [5]; target FLT3(D835V); 1 μM): 18 % Ctrl; % Ctrl, EGFR(L858R) (kinases [6]; target EGFR(L858R); 1 μM): 78 % Ctrl
Cc1cc2c([nH]1)/C=C1\C(=O)Nc3ccc(cc31)-c1cnn(C)c1COCCN(C)C2=O [Ex. 124, [3a(4)Z]-6,9,14-trimethyl-10,11,13,14-tetrahydro-2H-1,17-(ethanediylidene)pyrazolo[4,3-m]dipyrrolo[3,2-f:3′,4′-i][1,4]oxazacyclopentadecine-3,8(5H,9H)-dione] | 81 % Ctrl | 0.7 % Ctrl | 0.05 % Ctrl | 0 % Ctrl | 0 % Ctrl | 58 % Ctrl | 
Cc1cc2c([nH]1)/C=C1\C(=O)Nc3ccc(cc31)-c1c(noc1C(C)C)COCCN(C)C2=O [Ex. 161, [3a(4)Z]-9-methyl-16-(propan-2-yl)-10,11-dihydro-2H,13H-1,17-(ethanediylidene)[1,2]oxazolo[4,3-m]dipyrrolo[3,2-f:3′,4′-i][1,4]oxazacyclopentadecine-3,8(5H,9H)-dione] |  |  |  |  |  |  | % Ctrl, EGFR(L861Q) (kinases [1]; 1 μM; target EGFR(L861Q)): 100 % Ctrl; % Ctrl, KIT(D816V) (kinases [2]; 1 μM; target KIT(D816V)): 100 % Ctrl; % Ctrl, FLT3(D835H) (kinases [3]; 1 μM; target FLT3(D835H)): 48 % Ctrl; % Ctrl, ABL1(E255K)-phosphorylated (kinases [4]; [8]): 86 % Ctrl; % Ctrl, FLT3(D835V) (kinases [5]; 1 μM; target FLT3(D835V)): 23 % Ctrl; % Ctrl, EGFR(L858R) (kinases [6]; 1 μM; target EGFR(L858R)): 100 % Ctrl
Cc1cc2c([nH]1)/C=C1\C(=O)Nc3ccc(cc31)-c1cnn(C)c1CN(C)CCN(C)C2=O [Ex. 126, [3a(4)Z]-6,9,12,14-tetramethyl-9,10,11,12,13,14-hexahydro-1,17-(ethanediylidene)pyrazolo[4,3-m]dipyrrolo[3,2-f:3′,4′-i][1,4]diazacyclopentadecine-3,8(2H,5H)-dione] | 50 % Ctrl | 0.3 % Ctrl | 0.05 % Ctrl | 0.55 % Ctrl | 0 % Ctrl | 31 % Ctrl | 
